Assays:
TR-α = molecular target: T1, TR-α (Homo sapiens, UniProt P10827); assay: In vitro TR-α activity (in-house protocol); type: cell-based
T1 sequence (P10827 1-410 isoform P10827-2): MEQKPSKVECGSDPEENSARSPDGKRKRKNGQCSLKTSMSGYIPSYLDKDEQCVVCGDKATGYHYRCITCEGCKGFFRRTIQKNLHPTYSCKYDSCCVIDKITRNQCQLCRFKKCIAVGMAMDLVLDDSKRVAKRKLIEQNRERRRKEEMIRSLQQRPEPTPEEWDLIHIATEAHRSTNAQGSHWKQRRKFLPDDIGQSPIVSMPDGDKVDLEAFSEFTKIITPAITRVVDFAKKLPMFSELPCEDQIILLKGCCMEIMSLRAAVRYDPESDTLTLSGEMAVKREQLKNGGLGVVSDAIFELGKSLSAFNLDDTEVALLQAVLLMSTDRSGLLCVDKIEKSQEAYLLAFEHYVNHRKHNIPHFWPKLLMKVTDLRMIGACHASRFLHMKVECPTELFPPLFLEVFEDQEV
Method: (§1) Invitro TR-α & TR-β activities were determined as per in-house protocols and the results of representative compounds are provided in tables 1 & 2 below as a proof of the efficacies of the novel class of compounds disclosed above.

TR-β = molecular target: T2, TR-β (Homo sapiens, UniProt P10828); assay: In vitro TR-β activity (in-house protocol); type: cell-based; settings: for fold induction at 0.001 µM: Conc. 1 nM; for fold induction at 0.001 µM / fold induction at 0.01 µM / fold induction at 0.1 µM / fold induction at 1 µM: read-out: TR-β Fold Induction w.r.t T3(100 nm); for fold induction at 0.01 µM: Conc. 10 nM; for fold induction at 0.1 µM: Conc. 100 nM; for fold induction at 1 µM: Conc. 1000 nM
T2 sequence (P10828 1-461): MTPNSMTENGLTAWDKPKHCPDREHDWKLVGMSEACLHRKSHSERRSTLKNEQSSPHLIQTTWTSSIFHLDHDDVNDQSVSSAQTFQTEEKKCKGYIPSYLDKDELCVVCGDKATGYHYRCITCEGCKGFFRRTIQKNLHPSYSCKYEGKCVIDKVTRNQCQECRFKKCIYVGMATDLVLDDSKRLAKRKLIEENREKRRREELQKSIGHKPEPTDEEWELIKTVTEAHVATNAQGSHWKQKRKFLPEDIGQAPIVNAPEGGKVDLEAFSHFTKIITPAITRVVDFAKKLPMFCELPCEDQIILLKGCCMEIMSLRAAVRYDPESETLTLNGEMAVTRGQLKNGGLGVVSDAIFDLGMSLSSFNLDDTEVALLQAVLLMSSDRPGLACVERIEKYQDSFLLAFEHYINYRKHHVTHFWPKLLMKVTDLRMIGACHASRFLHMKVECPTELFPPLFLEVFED
Method: as §1

| TR-α Fold Induction w.r.t T3(100 nm) (TR-α; Conc. 10 nM) | TR-α Fold Induction w.r.t T3(100 nm) (TR-α; Conc. 100 nM) | TR-α Fold Induction w.r.t T3(100 nm) (TR-α; Conc. 1000 nM) | fold induction at 0.01 µM (TR-β) | fold induction at 0.1 µM (TR-β) | fold induction at 1 µM (TR-β) | SMILES | TR-α Fold Induction w.r.t T3(100 nm) (TR-α; Conc. 1 nM) | fold induction at 0.001 µM (TR-β) | EC50 (TR-α) [nM] | EC50 (TR-β) [nM] |
| --- | --- | --- | --- | --- | --- | --- | --- | --- | --- | --- |
|  |  |  |  |  |  | CCOC(=O)N(CC(=O)O)c1cc(Cl)c(Oc2ccc(O)c(C(C)CC)c2)c(Cl)c1 (stereo not drawn) [Example 2, {[4-(3-sec-Butyl-4-hydroxy-phenoxy)-3,5-dichloro-phenyl]-ethoxycarbonyl-amino}-acetic acid] |  |  | 119 | 162 |
| 40.84 | 71.78 | 63.71 | 66.7 | 125 | 95.6 | Cc1cc(N(CC(=O)O)CC(=O)O)cc(C)c1Oc1ccc(O)c(C(C)C)c1 [Example 37, {Carboxymethyl-[4-(4-hydroxy-3-isopropyl-phenoxy)-3,5-dimethyl-phenyl]-amino}-acetic acid] | 14.93 | 21.2 |  |  |
| 26.23 | 62.95 | 53.76 | 21.3 | 51.1 | 55.7 | CC(C)(C)c1cc(Oc2c(Cl)cc(N(CC(=O)O)CC(=O)O)cc2Cl)ccc1O [Example 34, {[4-(3-tert-Butyl-4-hydroxy-phenoxy)-3,5-dichloro-phenyl]-carboxymethyl-amino}-acetic acid] | 12.66 | 8.37 |  |  |
|  |  |  |  |  |  | O=C(O)CN(C(=O)Oc1ccc(O)cc1)c1cc(Cl)c(Oc2ccc(O)c(Cc3ccccc3)c2)c(Cl)c1 [Example 50, [[4-(3-Benzyl-4-hydroxy-phenoxy)-3,5-dichloro-phenyl]-(4-hydroxy-phenoxycarbonyl)-amino]-acetic acid] |  |  | 23.3 | 6.2 |
| 11.34 | 39.66 | 33.74 | 23.5 | 70.5 | 66.8 | CCOC(=O)N(CC(=O)O)c1cc(Cl)c(Oc2ccc(O)c(C(=O)c3ccc(F)cc3)c2)c(Cl)c1 [Example 15, ({3,5-Dichloro-4-[3-(4-fluoro-benzoyl)-4-hydroxy-phenoxy]-phenyl}-ethoxycarbonyl-amino)-acetic acid] |  |  |  |  |
| 49.80 | 96.60 | 72.90 | 44.2 | 80.6 | 75 | CCOC(=O)N(CC(=O)O)c1cc(Cl)c(Oc2ccc(O)c(C(C)(C)C)c2)c(Cl)c1 [Example 13, {[4-(3-tert-Butyl-4-hydroxy-phenoxy)-3,5-dichloro-phenyl]-ethoxycarbonyl-amino}-acetic acid] |  |  |  |  |
| 8.90 | 12.97 | 16.87 | 18.6 | 23 | 42.6 | CCOC(=O)N(CC(=O)O)c1cc(C)c(Oc2ccc(O)c(C(C)CC)c2)c(C)c1 (stereo not drawn) [Example 18, {[4-(3-sec-Butyl-4-hydroxy-phenoxy)-3,5-dimethyl-phenyl]-ethoxycarbonyl-amino}-acetic acid] | 6.62 | 9.44 |  |  |
| 11.10 | 36.30 | 45.90 | 16.4 | 58.5 | 77.3 | CCOC(=O)N(CC(=O)O)c1cc(Cl)c(Oc2ccc(O)c(-c3ccccc3)c2)c(Cl)c1 [Example 14, {[3,5-Dichloro-4-(6-hydroxy-biphenyl-3-yloxy)-phenyl]-ethoxycarbonyl-amino}-acetic acid] |  |  |  |  |
|  |  |  |  |  |  | CCC(C)c1cc(Oc2c(Cl)cc(N(CC(=O)O)CC(=O)O)cc2Cl)ccc1O (stereo not drawn) [Example 26, {[4-(3-sec-Butyl-4-hydroxy-phenoxy)-3,5-dichloro-phenyl]-carboxymethyl-amino}-acetic acid] |  |  | 176 | 28.1 |
|  |  |  |  |  |  | O=C(O)CN(C(=O)Oc1ccc(O)cc1)c1cc(Cl)c(Oc2ccc(O)c(C(=O)c3ccc(F)cc3)c2)c(Cl)c1 [Example 55, [{3,5-Dichloro-4-[3-(4-fluoro-benzoyl)-4-hydroxy-phenoxy]-phenyl}-(4-hydroxy-phenoxycarbonyl)-amino]-acetic acid] |  |  | 107 | 64.3 |
|  |  |  |  |  |  | CCOC(=O)N(CC(=O)O)c1cc(Cl)c(Oc2ccc(O)c(C(C)C)c2)c(Cl)c1 [Example 1, {[3,5-Dichloro-4-(4-hydroxy-3-isopropyl-phenoxy)-phenyl]-ethoxycarbonyl-amino}-acetic acid] |  |  | 440 | 146 |
|  |  |  |  |  |  | O=C(O)CN(C(=O)Oc1ccc(O)cc1)c1cc(Cl)c(Oc2ccc(O)c(S(=O)(=O)N3CCCC3)c2)c(Cl)c1 [Example 63, [{3,5-Dichloro-4-[4-hydroxy-3-(pyrrolidine-1-sulfonyl)-phenoxy]-phenyl}-(4-hydroxy-phenoxycarbonyl)-amino]-acetic acid] |  |  | 337 | 254 |

| SMILES | TR-α Fold Induction w.r.t T3(100 nm) (TR-α; Conc. 10 nM) | TR-α Fold Induction w.r.t T3(100 nm) (TR-α; Conc. 100 nM) | TR-α Fold Induction w.r.t T3(100 nm) (TR-α; Conc. 1000 nM) | fold induction at 0.01 µM (TR-β) | fold induction at 0.1 µM (TR-β) | fold induction at 1 µM (TR-β) | TR-α Fold Induction w.r.t T3(100 nm) (TR-α; Conc. 1 nM) | fold induction at 0.001 µM (TR-β) | EC50 (TR-α) [nM] | EC50 (TR-β) [nM] |
| --- | --- | --- | --- | --- | --- | --- | --- | --- | --- | --- |
| CC(C)c1cc(Oc2c(Cl)cc(N(CC(=O)O)C(=O)Oc3ccc(O)cc3)cc2Cl)ccc1O [Example 32, [[3,5-Dichloro-4-(4-hydroxy-3-isopropyl-phenoxy)-phenyl]-(4-hydroxy-phenoxycarbonyl)-amino]-acetic acid] | 74.20 | 87.50 | 72.37 | 73.7 | 119 | 94.9 | 23.36 | 24.7 |  |  |
| Cc1cc(N(CC(=O)O)C(=O)Oc2ccc(O)cc2)cc(C)c1Oc1ccc(O)c(C(C)C)c1 [Example 42, [[4-(4-Hydroxy-3-isopropyl-phenoxy)-3,5-dimethyl-phenyl]-(4-hydroxy-phenoxycarbonyl)-amino]-acetic acid] | 26.63 | 72.96 | 80.89 | 41.4 | 91.9 | 86 | 11.05 | 12.9 |  |  |
| O=C(O)CN(C(=O)Oc1ccc(O)cc1)c1cc(Cl)c(Oc2ccc(O)c(S(=O)(=O)NC3CCC3)c2)c(Cl)c1 [Example 51, [[3,5-Dichloro-4-(3-cyclobutylsulfamoyl-4-hydroxy-phenoxy)-phenyl]-(4-hydroxy-phenoxycarbonyl)-amino]-acetic acid] | 14.43 | 32.52 | 83.34 | 17 | 54.6 | 102 | 08.05 | 8.68 |  |  |

— patent US8420851B2, “Selective TR-β 1 agonist” (Cadila Healthcare Limited, priority 2006, dated 2013)
